Experimental data from paper PMC11555678, “Improved Broad Spectrum Antifungal Drug Synergies with Cryptomycin, a Cdc50-Inspired Antifungal Peptide” (ACS Infectious Diseases, 2024).
In brackets after ≈: the same amount, converted by molar mass. Read-outs that look alike come from different tables or passages of the source.

How the values were obtained:
[1] = tested on: C. neoformans H99; format: cell-based, Cryptococcus neoformans; settings: RPMI1640, 37 °C; for MIC of antifungal in combination with KKOO / MIC of antifungal in combination with KKOO-NH2: 48 h
Experimental: All microdilution assays with fungi were carried out in accordance with CLSI protocols from M27 for yeasts and M38 for filamentous fungi, respectively, unless otherwise specified.[64],[65] Briefly, 96-well plates were charged with RPMI1640 media, with operating volume in the first column, 200 μL, and half operating volume, 100 μL, in the remaining wells. Drug stock solution in DMSO was aliquoted into the first well in each row. Half of the volume in the dosed well was serially diluted 2-fold until column 11. Column 11 was used as the negative growth control, and column 12 was used as the positive growth control. ON yeast cultures in YPD were washed twice in DD-H2O, resuspended in PBS, and adjusted to 5000 cfu/mL in RPMI. The 96-well plate was inoculated with 100 μL aliquots of cell suspension per well. […]
(§1) To assess drug synergy, the initial media charged to the plate contained the peptide at twice the final operating concentration; the remaining processing steps were identical to the MIC experiment. Upon addition of 100 μL of inoculant, the final operating concentration was achieved. Control MIC plates were prepared alongside drug synergy plates to account for the day-to-day variability in any individual MIC. FIC index is computed using eq 1. All MIC assays and drug synergy assays were completed with two technical replicates per 96-well plate and a minimum of two biological replicates per drug combination. If a difference in MIC between the two technical replicates on the plate were observed, only the higher concentration was reported as the MIC to reduce the possibility of type 1 error (false positive) [drawing 1] 1

[2] = tested on: C. auris B11245; test: microbe, parasite or virus in culture; format: cell-based, Candida auris
Experimental: (§2) All microdilution assays with fungi were carried out in accordance with CLSI protocols from M27 for yeasts and M38 for filamentous fungi, respectively, unless otherwise specified.[64],[65] Briefly, 96-well plates were charged with RPMI1640 media, with operating volume in the first column, 200 μL, and half operating volume, 100 μL, in the remaining wells. Drug stock solution in DMSO was aliquoted into the first well in each row. Half of the volume in the dosed well was serially diluted 2-fold until column 11. Column 11 was used as the negative growth control, and column 12 was used as the positive growth control. ON yeast cultures in YPD were washed twice in DD-H2O, resuspended in PBS, and adjusted to 5000 cfu/mL in RPMI. The 96-well plate was inoculated with 100 μL aliquots of cell suspension per well. Plates were incubated at 37 °C for 2 days.

[3] = tested on: Cn H99; test: microbe, parasite or virus in culture; format: cell-based, Cryptococcus neoformans; settings: Cryptococcus neoformans, H99, 48 h, 37 °C, 48 h, read-out: MIC
Experimental: (§3) Previous studies have shown that modifying microbiological media with salts such as CaCl2 can have a drastic effect on the growth of fungi and their responses to antifungals.[19],[35] In the case of CaCl2, the divalent cation, Ca^2+, is involved in fungal cell stress response. To understand how the peptide activity may involve calcium and stress response, the MICs of KKOO, KKOO-NH2, FLC, and CAS were assessed as a function of the calcium concentration in liquid YPD media. It was observed that calcium enrichment completely desensitized the wild-type strain to KKOO and KKOO-NH2, Tables 7 and 8, respectively. Effects of calcium enrichment on the susceptibility of Cryptococcus to CAS similar to literature values were recorded, Supporting Information, Table S7.[35]
(§4) In order to control for the effects of enriching YPD with a divalent cation, MICs and ROS production were also measured as a function of the MgCl2 supplement at the same millimolar concentrations of cation as in the CaCl2-modified experiments. […] No peptide susceptibility changes were observed against Cn cdc50Δ in magnesium-enriched media, Table S9. ROS production in H99 induced by peptide exposure was inhibited after 30 min of treatment in the magnesium-enriched condition, similar to the levels observed in the calcium-enriched media at 16 μg/mL KKOO-NH2, Figure S1. […] The link between peptide activity and calcium homeostasis may be vital in understanding precisely how the peptide kills fungal cells and requires more research to elucidate.
as §2

[4] = tested on: Cn cdc50Δ; test: microbe, parasite or virus in culture; format: cell-based, Cryptococcus neoformans; settings: 48 h, 37 °C, 48 h
Experimental: as §3, §4, §2

[5] = tested on: Cn MRL862; format: cell-based, Cryptococcus neoformans; settings: RPMI1640, 37 °C, 48 h
Experimental: as §2, §1

[6] = tested on: C. glabrata FKS2-S663P; test: microbe, parasite or virus in culture; format: cell-based, Candida glabrata; settings: Nakaseomyces glabratus, FKS2S663P, 48 h
Method in brief: (§5)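 Broth microdilution per CLSI M27 in RPMI1640, compounds serially diluted 2-fold from DMSO stock. Overnight YPD cultures washed, resuspended and adjusted to 5000 cfu/mL in RPMI as inoculum. Plates incubated 2 days at 37 °C.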

[7] = tested on: C. glabrata 2001; test: microbe, parasite or virus in culture; format: cell-based, Candida glabrata; settings: Nakaseomyces glabratus, 2001; compound alone; RPMI1640, 37 °C, 48 h; read-out: MIC
Method in brief: as §5

[8] = tested on: C. glabrata FKS1-S629P; test: microbe, parasite or virus in culture; format: cell-based, Candida glabrata; settings: Nakaseomyces glabratus, FKS1S629P, 48 h
Method in brief: as §5

OC(Cn1cncn1)(Cn1cncn1)c1ccc(F)cc1F [FLC, fluconazole]
MIC of antifungal in combination with (FITC)KKOO ([1]; +0 μg/mL (FITC)KKOO): 2 µg/mL | MIC of antifungal in combination with KKOO ([1]; +0 μg/mL KKOO (control)): 2 µg/mL | MIC of antifungal in combination with KKOO-NH2 ([1]; +0 μg/mL KKOO-NH2 (control)): 2 µg/mL | MIC of antifungal in combination with KKOO-NH2 ([1]; +1 μg/mL KKOO-NH2): 2 µg/mL | MIC of antifungal in combination with KKOO ([1]; +1 μg/mL KKOO): 2 µg/mL | MIC of antifungal in combination with KKOO-NH2 ([1]; +2 μg/mL KKOO-NH2): 2 µg/mL | MIC of antifungal in combination with KKOO ([1]; +2 μg/mL KKOO): 2 µg/mL | MIC of antifungal in combination with (FITC)KKOO ([1]; +4 μg/mL (FITC)KKOO): 2 µg/mL | MIC of antifungal in combination with KKOO-NH2 ([1]; +4 μg/mL KKOO-NH2): 1 µg/mL | MIC of antifungal in combination with KKOO ([1]; +4 μg/mL KKOO): 2 µg/mL | MIC of antifungal in combination with (FITC)KKOO ([1]; +8 μg/mL (FITC)KKOO): 2 µg/mL | MIC of antifungal in combination with KKOO ([1]; +8 μg/mL KKOO): 1 µg/mL | MIC ([2]; Candidozyma auris, B11245, 48 h): > 128 µg/mL | MIC ([2]; compound alone, RPMI1640, 37 °C, 48 h, * = paradoxical growth observed (CAS)): >128 µg/mL | MIC ([3]; YPD + 0 mM Ca2+): 8 µg/mL | MIC ([3]; YPD + 0 mM Mg2+): 4 µg/mL | MIC ([3]; YPD + 2.5 mM Ca2+): 8 µg/mL | MIC ([3]; YPD + 2.5 mM Mg2+): 4 µg/mL | MIC ([3]; YPD + 5 mM Ca2+): 8 µg/mL | MIC ([3]; YPD + 5 mM Mg2+): 2 µg/mL | MIC ([3]; YPD + 10 mM Ca2+): 8 µg/mL | MIC ([3]; YPD + 10 mM Mg2+): 2 µg/mL | MIC ([3]; YPD + 20 mM Ca2+): 8 µg/mL | MIC ([3]; YPD + 20 mM Mg2+): 2 µg/mL | MIC ([4]; Cryptococcus neoformans, YPD + 0 mM Ca2+): 0.5 µg/mL | MIC ([4]; Cryptococcus neoformans, YPD + 2.5 mM Ca2+): 0.5 µg/mL | MIC ([4]; Cryptococcus neoformans, YPD + 5 mM Ca2+): 0.5 µg/mL | MIC ([4]; Cryptococcus neoformans, YPD + 10 mM Ca2+): 0.25 µg/mL | MIC ([4]; Cryptococcus neoformans, YPD + 20 mM Ca2+): 0.25 µg/mL | MIC ([4]; YPD + 0 mM Mg2+, unit not given): ½ | MIC ([4]; YPD + 2.5 mM Mg2+, unit not given): ¼ | MIC ([4]; YPD + 5 mM Mg2+, unit not given): ¼ | MIC ([4]; YPD + 10 mM Mg2+, unit not given): 1/8 | MIC ([4]; YPD + 20 mM Mg2+, unit not given): 1/16 | MIC of antifungal in combination with KKOO ([5]; +0 μg/mL KKOO (control)): 32 µg/mL | MIC of antifungal in combination with KKOO-NH2 ([5]; +0 μg/mL KKOO-NH2 (control)): 32 µg/mL | MIC of antifungal in combination with KKOO-NH2 ([5]; +1 μg/mL KKOO-NH2): 32 µg/mL | MIC of antifungal in combination with KKOO ([5]; +1 μg/mL KKOO): 64 µg/mL | MIC of antifungal in combination with KKOO-NH2 ([5]; +2 μg/mL KKOO-NH2): 32 µg/mL | MIC of antifungal in combination with KKOO ([5]; +2 μg/mL KKOO): 32 µg/mL | MIC of antifungal in combination with KKOO-NH2 ([5]; +4 μg/mL KKOO-NH2): 32 µg/mL | MIC of antifungal in combination with KKOO ([5]; +4 μg/mL KKOO): 32 µg/mL | MIC [6]: 2 µg/mL (≈ 6.53 µM) | MIC [7]: 8 µg/mL (≈ 26.1 µM) | MIC [8]: 2 µg/mL (≈ 6.53 µM)
